Results as given in article PMC3183052, “Immunoprotectivity of HLA-A2 CTL Peptides Derived from Respiratory Syncytial Virus Fusion Protein in HLA-A2 Transgenic Mouse” (PLoS ONE, 2011).

Columns and labels:
HLA-A*0201 = molecular target: T1, HLA-A*0201 (Homo sapiens, UniProt P04439, D140Y/D185E/D98H/E176V/E277Q/G131W/G231S/I119V/I121R/I166T/I218V/L300P/L318F/N151K/N90K/P208A/P217A/Q86G/Q94H/R138H/R169H/T345S); experiment: T2 cell-stabilization assay (T2-binding); conditions: T2 cells 5×10^5, peptide 50 µg/mL + β2-microglobulin 5 µg/mL, 28°C 16–18 h, then brefeldin A 10 µg/mL 37°C 3 h; FITC anti-HLA-A2, flow cytometry; MFI relative to negative control HCV C55-74 (set as 1)
T1 construct: Human T2 cells (purchased from the American Type Culture Collection, ATCC) (ATCC No. CRL-1992) expressing the HLA-A*0201 gene; endogenous in cells; host or cells: human T2 cells (ATCC CRL-1992)
Procedure, shortened: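 T2 cells were pulsed with 9-mer peptides (50 µg/mL) plus β2-microglobulin (5 µg/mL) at 28°C for 16–18 hours, then brefeldin A (10 µg/mL) at 37°C for 3 hours. Surface HLA-A2 was stained with FITC anti-HLA-A2 and read by flow cytometry. Binding is MFI relative to T2 cells loaded with HCV peptide C55-74 (MFI = 1).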

lung eosinophils = experiment: Eosinophil infiltration into the lungs (anti-MBP immunohistochemistry); type: in vivo, HLA-A*0201 transgenic C57BL/6 mice; conditions: day 4 post RSV challenge; anti-MBP staining, 20 fields at 200×; six mice per group
Source text: Whole lungs were excised from the mice, fixed in 10% formalin (Sigma-Aldrich) solution overnight and embedded in paraffin (Thermo Fisher Scientific) for sectioning. The sections were stained with rat monoclonal anti-major basic protein (MBP) antibody (1∶500 dilution, gifted from Dr. James J. Lee, Mayo Clinic, AZ, USA) followed by the appropriate secondary antibodies. Twenty-bright field microscopy pictures (Nikon DXM1200 CCD digital camera attached with ACT-1 imaging capture software) from each stained section were taken at 200× magnifications and the number of eosinophils was counted. The mean of eosinophil count from each section was calculated.
Figure 6 Eosinophil infiltration into the lungs of peptide-immunized transgenic mice upon RSV challenge. Immunohistochemical analysis of lung sections with anti-major basic protein antibody specific for eosinophils followed by the HRP-conjugated anti-rat antibody was performed. (A) Pictures from the section of normal mouse lung (a), or vehicle- (b), peptide 3- (c), 13- (d), 14- (e) and 23- (f) immunized mouse lung section. (B) Quantitative representation of eosinophil count per section of peptide- or vehicle-immunized HLA-transgenic mice at day 4 post RSV challenge. Twenty bright field pictures from each lung mesenchymal region were examined and the number of eosinophils was counted under 200× magnification. […]

RSV-B1 = experiment: Body weight after live RSV challenge; type: in vivo, HLA-A*0201 transgenic C57BL/6 mice; conditions: peptide-immunized HLA-Tg B6 mice, 10^7 pfu live RSV-B1 i.n.; weight recorded daily for 9 days
Method: To screen the immunodominance of epitopic peptide in the induction of RSV-F specific Th1/Th2 expression, HLA-A*0201 transgenic C57BL/6 mice were anesthetized with isoflurane and immunized with 1×10^7 pfu/50 µL of rAd-F0 or rAd-LacZ or 1×10^4 live RSV B1 via the intranasal (i.n.) route. Twenty days later, the mice were given booster immunization i.n. with the same dose. After 10 days of boost, mice were sacrificed and splenocytes were isolated for the cytokine ELISPOT assay. For peptide-based vaccination, transgenic mice were immunized subcutaneously (s.c.) with 50 µg of the individual synthetic peptides emulsified in 25 µL of incomplete Freund's adjuvant (IFA) (Sigma-Aldrich) and then boosted after 10 days s.c. with the same dose of the respective peptides mixed with IFA. Mice were sacrificed 7 days after the booster and splenocytes were isolated for in vitro peptide-restimulation. […] Mice body weight was monitored daily.
Figure 3 Determination of lung viral load and gain of lost body weight. […] (A) The viral load in the lungs of individual mice was determined 4 days after challenge by real-time RT-PCR to quantitate RSV N gene expression as described in the Materials and Methods. […] (B) The body weight of each mouse was recorded daily for 9 days after virus challenge. Results are expressed as % (mean) for 5 mice in each experimental group. […]

Sequence: YMLTNSELL [peptide 14, HLA-A*0201-restricted 9-mer synthetic peptide from F protein of RSV-B1 strain]
- T2-binding Ratio of MFI (HLA-A*0201): 1.71
- eosinophil numbers in the lungs vs vehicle-immunized mice (lung eosinophils): comparable eosinophil numbers
- recovery of body weight loss (in words) (RSV-B1): recovered only in the last two days
